According to paper PMC9609801, “Nipecotic Acid Derivatives as Potent Agents against Neurodegeneration: A Preliminary Study” (Molecules, 2022):

Target: T1, soybean lipoxygenase (lipoxygenase type I-B) (Glycine max, UniProt P08170)
T1 construct: gene LOX1.1
T1 sequence (P08170 1-839): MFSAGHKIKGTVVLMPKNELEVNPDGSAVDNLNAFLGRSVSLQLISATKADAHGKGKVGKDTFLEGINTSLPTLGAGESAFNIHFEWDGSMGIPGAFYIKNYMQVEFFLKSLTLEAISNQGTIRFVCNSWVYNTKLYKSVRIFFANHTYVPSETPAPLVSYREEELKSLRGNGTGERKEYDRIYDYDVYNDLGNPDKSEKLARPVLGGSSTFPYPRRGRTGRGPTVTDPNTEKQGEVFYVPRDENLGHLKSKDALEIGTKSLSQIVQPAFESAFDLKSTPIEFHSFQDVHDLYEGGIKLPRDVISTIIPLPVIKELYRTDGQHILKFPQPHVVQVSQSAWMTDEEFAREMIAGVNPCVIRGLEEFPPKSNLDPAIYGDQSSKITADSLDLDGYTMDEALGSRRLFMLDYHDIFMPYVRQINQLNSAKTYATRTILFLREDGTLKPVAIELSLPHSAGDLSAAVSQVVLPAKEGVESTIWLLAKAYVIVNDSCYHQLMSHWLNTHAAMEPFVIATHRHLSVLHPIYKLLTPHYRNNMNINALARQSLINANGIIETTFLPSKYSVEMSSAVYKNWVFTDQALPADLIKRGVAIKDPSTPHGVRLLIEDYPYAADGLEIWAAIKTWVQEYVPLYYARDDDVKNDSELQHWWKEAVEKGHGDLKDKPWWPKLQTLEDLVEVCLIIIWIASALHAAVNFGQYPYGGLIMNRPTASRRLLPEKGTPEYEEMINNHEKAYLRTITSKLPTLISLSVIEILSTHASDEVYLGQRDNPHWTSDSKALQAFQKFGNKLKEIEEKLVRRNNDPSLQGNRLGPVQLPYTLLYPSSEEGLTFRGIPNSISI
Assay: linoleate oxidation at […] nm, % inhibition at […] μΜ
Type: biochemical
Conditions: read-out: % Inhibition (LOX)

Question: `CCOC(=O)C1CCCN(C(=O)c2cc(C(C)(C)C)c(O)c(C(C)(C)C)c2)C1` (centres unmarked) [compound 1, Ethyl 1-(3,5-di-tert-butyl-4-hydroxybenzoyl)piperidine-3-carboxylate] was tested. Which inhibition at 100 µM did it give?
Answer: Its inhibition at 100 µM is 31%.

Question: How did the inhibition at 100 µM turn out when `CCOC(=O)C1CCCN(C(=O)/C=C/c2cc(C(C)(C)C)c(O)c(C(C)(C)C)c2)C1` (centres unmarked) [compound 2, (E)-Ethyl 1-(3-(3,5-di-tert-butyl-4-hydroxyphenyl)acryloyl)piperidine-3-carboxylate] was run?
Answer: Its inhibition at 100 µM is 33%.
